We go through 29 molecules from PubChem BioAssay (NCI).

Some test systems named below: DLD-1 colon; KM20L2 colon; DMS 114 small cell lung; HOP-18 NSCLC; XF 498 CNS; LXFL 529 NSCLC; MDA-N.
Holding throughout (test): inhibition of tumour cell growth, NCI panel, 48 h

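These data come from cells grown in 96-well plates and exposed to compound for 48 hours at five concentrations. Definition used: TGI = concentration required for complete inhibition of growth.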 Some results are limits rather than exact numbers.

For the molecule `CC1CCC2(NC1)OC1CC3[C@@H]4CC=C5C=CCC[C@]5(C)C4CC[C@]3(C)C1C2C` (stereo not given in full), the TGI was 58.2 µM in the assay on DLD-1 colon; 33.8 µM in the assay with KM20L2 colon; 46.8 µM in the assay with DMS 114 small cell lung; more than 100 µM with HOP-18 NSCLC; 33 µM in the assay on XF 498 CNS.

For `CNS(=O)(=O)NN(C)S(=O)(=O)c1ccc(Cl)cc1`, the TGI in the assay with DLD-1 colon, in the assay on LXFL 529 NSCLC, with KM20L2 colon, with DMS 114 small cell lung and in the assay on XF 498 CNS was more than 100 µM each time.

Turning to `CC1=C(C)CC2(SC1)C(=O)c1ccccc1C2=O`, the TGI in the assay with DLD-1 colon, in the assay on LXFL 529 NSCLC, with KM20L2 colon, with DMS 114 small cell lung and in the assay with HOP-18 NSCLC was more than 100 µM throughout.

With `O=C(CC1(O)C(=O)Nc2ccc(Br)cc21)c1ccc(Cl)cc1` (stereo not given), the TGI in the assay with DLD-1 colon, with LXFL 529 NSCLC, with KM20L2 colon and in the assay on HOP-18 NSCLC was more than 100 µM throughout.

On to `O=c1[nH]c(=O)n(C2CC(O)C(CO)O2)cc1C(OCC(F)(F)F)OCC(F)(F)F` (stereo not given), for which the TGI in the assay on DLD-1 colon, in the assay with LXFL 529 NSCLC, with KM20L2 colon, in the assay on DMS 114 small cell lung and with XF 498 CNS was more than 100 µM in each case.

In the case of `CCOC(=O)C(=O)C1C(=O)Nc2ccccc21` (stereo not given), the TGI with DLD-1 colon, with LXFL 529 NSCLC, in the assay on DMS 114 small cell lung and in the assay with XF 498 CNS was more than 100 µM throughout.

Consider `CC(C)COC(=O)N1N=NC2C3OC(CC3=O)C21` (stereo not given), for which the TGI in the assay on DLD-1 colon, in the assay on LXFL 529 NSCLC, in the assay with KM20L2 colon, in the assay with DMS 114 small cell lung, in the assay with HOP-18 NSCLC and in the assay on XF 498 CNS was more than 100 µM in each case.

In the case of `O=C1O[C@H](C(Cl)(Cl)Cl)N2CCCC12` (stereo not given in full), the TGI with LXFL 529 NSCLC, in the assay on KM20L2 colon, in the assay with DMS 114 small cell lung, in the assay with HOP-18 NSCLC and with XF 498 CNS was more than 100 µM each time.

Consider `C[N+](C)([O-])CCCNc1c2ccccc2nc2cccc([N+](=O)[O-])c12`, for which the TGI in the assay on MDA-N worked out at 0.524 µM.

With `O=c1[nH]c(-c2ccccc2)nc2ccc(Cl)cc12`, the TGI in the assay with LXFL 529 NSCLC, with KM20L2 colon and in the assay on DMS 114 small cell lung was more than 100 µM each time.

`CCNc1c(C(=O)N(CC)CC)c(=O)[nH]c2ncccc12`: the TGI in the assay with DLD-1 colon, in the assay on LXFL 529 NSCLC, in the assay on KM20L2 colon and in the assay on DMS 114 small cell lung was more than 100 µM each time.

Turning to `CS(=O)(=O)N(CCC#N)c1ccc(/C=N/NC(=O)CC(=O)Nc2cccc(Cl)c2)cc1`, the TGI in the assay on DLD-1 colon, in the assay on LXFL 529 NSCLC, in the assay on KM20L2 colon, in the assay with DMS 114 small cell lung and in the assay on HOP-18 NSCLC was more than 100 µM each time.

Regarding `CCN(CC)c1ccc(N=C2C=CC(=O)c3ncccc32)c(C)c1`, the TGI was found to be 12 µM with DLD-1 colon; 8.67 µM with LXFL 529 NSCLC; 26.5 µM in the assay on KM20L2 colon; 12.9 µM in the assay with DMS 114 small cell lung; 22.8 µM with HOP-18 NSCLC; 5.19 µM in the assay on XF 498 CNS.

As to `O=C1CCC2CCc3cccc4oc1c2c34` (stereo not given), the TGI with DLD-1 colon, in the assay with LXFL 529 NSCLC, in the assay on KM20L2 colon, in the assay on DMS 114 small cell lung, with HOP-18 NSCLC and in the assay on XF 498 CNS was more than 100 µM throughout.

With `Cc1ccc(C(=O)O/N=C2/CCCCC2CN(C)C)cc1` (stereo not given), the TGI with DLD-1 colon, in the assay with LXFL 529 NSCLC, in the assay with KM20L2 colon, in the assay with DMS 114 small cell lung and in the assay on HOP-18 NSCLC was more than 100 µM throughout.

On to `CCON=C1C(C)(C)C(C)(C)C(C)(C)C1(C)C`, for which the TGI with MDA-N was more than 100 µM.

Consider `N#CCCN(CCC#N)c1ccc(/C=C2\N=C(COc3ccc(Cl)cc3Cl)OC2=O)cc1`, for which the TGI with DLD-1 colon, in the assay on LXFL 529 NSCLC, in the assay on KM20L2 colon, with DMS 114 small cell lung and in the assay with XF 498 CNS was more than 100 µM each time.

Take `O=C(O)CNS(=O)(=O)c1ccc(NC(=O)c2ccc(F)cc2)cc1`: the TGI with DLD-1 colon, in the assay on LXFL 529 NSCLC, with KM20L2 colon, in the assay with HOP-18 NSCLC and in the assay with XF 498 CNS was more than 100 µM each time.

As to `Cn1ccnc1C(c1nccn1C)C(C)(C)[N+](=O)[O-]`, the TGI in the assay with DLD-1 colon, in the assay on DMS 114 small cell lung and in the assay with XF 498 CNS was more than 100 µM in each case.

In turn, `C=C(C)C(=O)OC1CC2(C)OC2CC(OC(C)=O)/C(C)=C/C2OC(=O)C(=C)C21` (stereo not given) yielded a TGI in the assay with MDA-N of 8.59 µM.

For `CCN(CC)CC(=O)/C=C/c1ccc(C)cc1`, the TGI in the assay on DLD-1 colon was determined as 59.6 µM; with LXFL 529 NSCLC, 33 µM; in the assay with KM20L2 colon, 49.4 µM; in the assay on DMS 114 small cell lung, 37.9 µM; with HOP-18 NSCLC it was 59.6 µM; in the assay with XF 498 CNS, 92.4 µM.

Turning to `COc1ccccc1/C=C1\CCC(CNc2ccc(Cl)cc2)C1=O` (stereo not given), the TGI with DLD-1 colon is 17.5 µM; in the assay with LXFL 529 NSCLC it was 13.7 µM; in the assay on KM20L2 colon, 4.87 µM; in the assay with DMS 114 small cell lung, 22.5 µM; with HOP-18 NSCLC, 30.2 µM; with XF 498 CNS, 42.7 µM.

Regarding `C=CCC12CCC(=O)C=C1CCC1(C2)OCCO1` (stereo not given), the TGI in the assay on DLD-1 colon, in the assay on LXFL 529 NSCLC, in the assay with KM20L2 colon, with DMS 114 small cell lung and with HOP-18 NSCLC was more than 100 µM in each case.

`OCCN(CCO)c1cccc(N(CCO)CCO)c1`: the TGI in the assay on DLD-1 colon, in the assay with LXFL 529 NSCLC, in the assay on KM20L2 colon, in the assay on DMS 114 small cell lung and in the assay on XF 498 CNS was more than 100 µM in each case.

Take `O=C(Nc1c(Cl)cc([N+](=O)[O-])cc1Cl)C(=O)C1C(=O)NC(=S)NC1=O`: the TGI with MDA-N was more than 100 µM.

Regarding `N=S(=O)(c1ccccc1)c1ccccc1[N+](=O)[O-]` (stereo not given), the TGI in the assay with DLD-1 colon, with LXFL 529 NSCLC, in the assay on KM20L2 colon, with HOP-18 NSCLC and in the assay on XF 498 CNS was more than 100 µM each time.

As to `Oc1ccc2occ3c2c1CCC3`, the TGI with DLD-1 colon, with LXFL 529 NSCLC, in the assay on KM20L2 colon, with DMS 114 small cell lung, in the assay with HOP-18 NSCLC and in the assay on XF 498 CNS was more than 100 µM in each case.

As to `NC1C2C(CC(=O)O)OCC=C3CN4CCC1(C(=O)C(=O)O)C4CC32` (stereo not given), the TGI with MDA-N is more than 100 µM.

For `CN(C)c1ccc(/C=C/C(=O)C(C)(C)C)cc1Br`, the TGI in the assay with DLD-1 colon is 43.9 µM; in the assay with LXFL 529 NSCLC it was 92.4 µM; in the assay on KM20L2 colon, 79.5 µM; in the assay on DMS 114 small cell lung it was 40.1 µM; in the assay on HOP-18 NSCLC it was more than 100 µM; with XF 498 CNS, 30.3 µM.
